# Measured values taken from PubChem BioAssay AID2060606 (Molecular Pharmacology Branch, DTP, NCI, 2025).
# Tested on: 922993-354-T-J3-PDC complex spheroids, viability, % test/control
# Assay: Anticancer human tumor 922993-354-T-J3-PDC patient-derived endometrial carcinoma cell line growth inhibition [CLK]
# Conditions: for IC50: curve of first compound; for viability, T/C: stronger effect = lower value
# Procedure, shortened: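 Patient-derived tumor cells grown as complex spheroids with HUVEC endothelial cells and mesenchymal stem cells, treated with drug combinations. Concentrations descend in half-log steps from near clinical Cmax, or from 10 microM if Cmax unknown.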
# [1] = second compound 0.0316 µM, first compound 0.0316 µM
# [2] = second compound 0.0316 µM, first compound 0.1 µM
# [3] = second compound 0.0316 µM, first compound 0.316 µM
# [4] = second compound 0.0316 µM, first compound 1 µM
# [5] = second compound 0.0316 µM, first compound 3.16 µM
# [6] = second compound 0.0316 µM, first compound 10 µM
# [7] = second compound 0.1 µM, first compound 0.0316 µM
# [8] = second compound 0.1 µM, first compound 0.1 µM
# [9] = second compound 0.1 µM, first compound 0.316 µM
# [10] = second compound 0.1 µM, first compound 1 µM
# [11] = second compound 0.1 µM, first compound 3.16 µM
# [12] = second compound 0.1 µM, first compound 10 µM
# [13] = second compound 0.316 µM, first compound 0.0316 µM
# [14] = second compound 0.316 µM, first compound 0.1 µM
# [15] = second compound 0.316 µM, first compound 0.316 µM
# [16] = second compound 0.316 µM, first compound 1 µM
# [17] = second compound 0.316 µM, first compound 3.16 µM
# [18] = second compound 0.316 µM, first compound 10 µM
# [19] = second compound 1 µM, first compound 0.0316 µM
# [20] = second compound 1 µM, first compound 0.1 µM
# [21] = second compound 1 µM, first compound 0.316 µM
# [22] = second compound 1 µM, first compound 1 µM
# [23] = second compound 1 µM, first compound 3.16 µM
# [24] = second compound 1 µM, first compound 10 µM
# [25] = second compound 3.16 µM, first compound 0.0316 µM
# [26] = second compound 3.16 µM, first compound 0.1 µM
# [27] = second compound 3.16 µM, first compound 0.316 µM
# [28] = second compound 3.16 µM, first compound 1 µM
# [29] = second compound 3.16 µM, first compound 3.16 µM
# [30] = second compound 3.16 µM, first compound 10 µM
# [31] = second compound 10 µM, first compound 0.0316 µM
# [32] = second compound 10 µM, first compound 0.1 µM
# [33] = second compound 10 µM, first compound 0.316 µM
# [34] = second compound 10 µM, first compound 1 µM
# [35] = second compound 10 µM, first compound 3.16 µM
# [36] = second compound 10 µM, first compound 10 µM
# 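Also: spheroids exposed to the agents for 7 days before readout.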
smiles,measurement,setting,value
C=CC(=O)N1CCN(c2nc(=O)n(-c3c(C)ccnc3C(C)C)c3nc(-c4c(O)cccc4F)c(F)cc23)C(C)C1 (centres undefined) + CN1CCN(c2cc(C(=O)Nc3cc4cc(-c5cnn(C)c5)ccc4cn3)ccn2)CC1,IC50,second compound 0.0316 µM,> 10000 nM
same,IC50,second compound 0.1 µM,> 10000 nM
same,IC50,second compound 0.316 µM,43.3 nM
same,IC50,second compound 1 µM,< 31.6 nM
same,IC50,second compound 3.16 µM,< 31.6 nM
same,IC50,second compound 10 µM,< 31.6 nM
same,"viability, T/C",[1],121%
same,"viability, T/C",[2],123%
same,"viability, T/C",[3],132%
same,"viability, T/C",[4],116%
same,"viability, T/C",[5],112%
same,"viability, T/C",[6],112%
same,"viability, T/C",[7],105%
same,"viability, T/C",[8],98.6%
same,"viability, T/C",[9],114%
same,"viability, T/C",[10],91.6%
same,"viability, T/C",[11],106%
same,"viability, T/C",[12],90.1%
same,"viability, T/C",[13],50.9%
same,"viability, T/C",[14],48.5%
same,"viability, T/C",[15],43.5%
same,"viability, T/C",[16],37.8%
same,"viability, T/C",[17],41.4%
same,"viability, T/C",[18],47.4%
same,"viability, T/C",[19],0.19%
same,"viability, T/C",[20],0.68%
same,"viability, T/C",[21],0.16%
same,"viability, T/C",[22],0.93%
same,"viability, T/C",[23],0.13%
same,"viability, T/C",[24],0.12%
same,"viability, T/C",[25],0.13%
same,"viability, T/C",[26],0.17%
same,"viability, T/C",[27],1.53%
same,"viability, T/C",[28],0.1%
same,"viability, T/C",[29],0.14%
same,"viability, T/C",[30],1.14%
same,"viability, T/C",[31],0.16%
same,"viability, T/C",[32],0.18%
same,"viability, T/C",[33],0.17%
same,"viability, T/C",[34],0.15%
same,"viability, T/C",[35],0.79%
same,"viability, T/C",[36],0.2%
CCCS(=O)(=O)Nc1ccc(F)c(C(=O)c2c[nH]c3ncc(-c4ccc(Cl)cc4)cc23)c1F + CN1CCN(c2cc(C(=O)Nc3cc4cc(-c5cnn(C)c5)ccc4cn3)ccn2)CC1,IC50,second compound 0.0316 µM,> 10000 nM
same,IC50,second compound 0.1 µM,9220 nM
same,IC50,second compound 0.316 µM,< 31.6 nM
same,IC50,second compound 1 µM,< 31.6 nM
same,IC50,second compound 3.16 µM,< 31.6 nM
same,IC50,second compound 10 µM,< 31.6 nM
same,"viability, T/C",[1],95.3%
same,"viability, T/C",[2],113%
same,"viability, T/C",[3],118%
same,"viability, T/C",[4],97.9%
same,"viability, T/C",[5],96.6%
same,"viability, T/C",[6],65.3%
same,"viability, T/C",[7],107%
same,"viability, T/C",[8],90.5%
same,"viability, T/C",[9],91.5%
same,"viability, T/C",[10],87.6%
same,"viability, T/C",[11],86.2%
same,"viability, T/C",[12],46.7%
same,"viability, T/C",[13],46.6%
same,"viability, T/C",[14],40.4%
same,"viability, T/C",[15],43.4%
same,"viability, T/C",[16],43.9%
same,"viability, T/C",[17],44.6%
same,"viability, T/C",[18],26.7%
same,"viability, T/C",[19],0.14%
same,"viability, T/C",[20],0.16%
same,"viability, T/C",[21],0.15%
same,"viability, T/C",[22],0.15%
same,"viability, T/C",[23],1.71%
same,"viability, T/C",[24],1.78%
same,"viability, T/C",[25],0.09%
same,"viability, T/C",[26],0.13%
same,"viability, T/C",[27],0.82%
same,"viability, T/C",[28],0.14%
same,"viability, T/C",[29],2.22%
same,"viability, T/C",[30],1.32%
same,"viability, T/C",[31],0.18%
same,"viability, T/C",[32],0.16%
same,"viability, T/C",[33],1.26%
same,"viability, T/C",[34],0.19%
same,"viability, T/C",[35],1.53%
same,"viability, T/C",[36],0.25%
